# In US12649733B2, “3,6-diamino-pyridazin-3-yl derivatives, pharmaceutical compositions containing them and their uses as pro-apoptotic agents” (LES LABORATOIRES SERVIER, priority 2019, dated 2026):
# pIC50, pKi: −log10 of the molar value.
# What was measured:
# BCLXL = BCLXL (Homo sapiens, UniProt Q07817, V10N/V9A); assay: Fluorescence polarisation assay (PUMA-based probe displacement); format: binding; also: 20 nM protein, 10 nM fluorescent probe
# Procedure: Fluorescence polarization measures the rotation of a fluorescing species in solution, the larger the molecule the more polarized the fluorescence emission.
# [[…]] (GST UniProtKB® primary accession number P08515 and BCLXL UniProtKB® primary accession number Q07817-1),
# resulting in an increase in anisotropy. If a compound is added which competitively binds to the same site as the probe, thereby releasing it, anisotropy decreases due to the increased amount of free probe.
# An 11-point serial dilution of each compound was prepared in DMSO, the final buffer conditions were 10 mM 4-(2-hydroxyethyl)-1-piperazineethanesulfonic acid [HEPES], 150 mM NaCl, 0.05% Tween 20, pH 7.4 and 5% DMSO. The final protein concentration in the assay was 20 nM with the fluorescent probe present at 10 nM. The experiments were incubated for 2 hours at 23° C. before fluorescence polarization was measured on a Biotek SynergyNeo plate reader (Excitation 485 nm, emission 525 nm, parallel and perpendicular reads). […] The KI values were determined from the IC50 values according to Cer et al, Nucleic Acids Res, 2009, Jul. 1: 37(WebServer issue): W441-W445.
# MOLT-4 cells = assay: MOLT-4 cell viability, MTT assay; format: cell-based; details: Homo sapiens, MOLT-4, 48 h, 48 h exposure
# Procedure: (§1) MTT colorimetric assay is based on the mitochondrial reduction of tetrazolium salt by living cells. The viable cell number is proportional to the production of formazan salts, which can be read spectrophotometrically at 540 nm.
# (§2) MOLT-4 and H146 cells were purchased from ATCC and cultivated in RPMI 1640 supplemented with 10% heat inactivated fetal bovine serum, penicillin (100 IU/ml), streptomycin (100 μg/ml) and L-glutamine (2 mM). Cells were cultured at 37° C. in a humidified atmosphere containing 5% CO2. Cells were seeded in 96 microwell plates (150 μL per well) and exposed to the compounds for 48 h (3.16 fold serially diluted; 9 concentrations each, triplicates). At the end of incubation time, 15 μL of MTT solution (5 mg/ml) were added per well and the cells were incubated for another 4 h. Then, 100 μL of 10% Sodium Dodecyl Sulfate (SDS)/HCl 10 mM were added per well and the plate was incubated overnight, before measurement of optical density at 540 nm. IC50s were calculated using standard four-parametric curve fitting.
# H146 cells = assay: H146 cell viability, MTT assay; format: cell-based; details: Homo sapiens, NCI-H146, 48 h, 48 h exposure
# Procedure: as §1, §2
# BCLXL, sequence (Q07817 with tags, fused parts or gaps V9A/V10N): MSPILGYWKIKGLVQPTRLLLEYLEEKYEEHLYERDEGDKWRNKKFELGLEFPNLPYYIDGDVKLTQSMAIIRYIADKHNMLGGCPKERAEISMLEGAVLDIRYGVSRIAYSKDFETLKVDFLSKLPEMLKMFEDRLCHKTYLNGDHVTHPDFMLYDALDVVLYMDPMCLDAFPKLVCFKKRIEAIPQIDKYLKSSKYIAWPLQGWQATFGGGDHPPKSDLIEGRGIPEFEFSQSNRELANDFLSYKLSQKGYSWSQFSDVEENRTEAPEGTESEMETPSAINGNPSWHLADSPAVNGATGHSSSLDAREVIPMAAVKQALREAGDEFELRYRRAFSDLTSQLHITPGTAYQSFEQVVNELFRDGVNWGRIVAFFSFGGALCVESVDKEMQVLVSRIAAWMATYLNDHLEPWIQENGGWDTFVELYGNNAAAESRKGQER
SMILES,pKi (BCLXL),pIC50 (MOLT-4 cells),pIC50 (H146 cells)
"Cc1c(Nc2nc(C(=O)O)cs2)nnc(Nc2nc3ccccc3s2)c1CO [Example 27, 2-({6-[(1,3-Benzothiazol-2-yl)amino]-5-(hydroxymethyl)-4-methylpyridazin-3-yl}amino)-1,3-thiazole-4-carboxylic acid]",6.51,< 4.89,< 4.82
"COCc1c(Nc2nc3ccccc3s2)nnc(Nc2nc(C(=O)O)cs2)c1C [Example 28, 2-({6-[(1,3-Benzothiazol-2-yl)amino]-5-(methoxymethyl)-4-methylpyridazin-3-yl}amino)-1,3-thiazole-4-carboxylic acid]",6.89,< 4.82,< 4.82
"CCOCc1c(Nc2nc(C(=O)O)cs2)nnc(Nc2nc3ccccc3s2)c1C [Example 30, 2-({6-[(1,3-Benzothiazol-2-yl)amino]-4-(ethoxymethyl)-5-methylpyridazin-3-yl}amino)-1,3-thiazole-4-carboxylic acid]",7.09,5.06,< 4.82
"CN(c1cc(C2CC2)c(Nc2nc3ccccc3s2)nn1)c1nc(C(=O)O)cs1 [Example 31, 2-({6-[(1,3-Benzothiazol-2-yl)amino]-5-cyclopropylpyridazin-3-yl}(methyl)amino)-1,3-thiazole-4-carboxylic acid]",8.59,5.63,5.38
"Cc1c(-c2sc(Nc3ccc(Nc4nc5ccccc5s4)nn3)nc2C(=O)O)cnn1CC12CC3CC(CC(C3)C1)C2 [Example 32, 5-{1-[(Adamantan-1-yl)methyl]-5-methyl-1H-pyrazol-4-yl}-2-({6-[(1,3-benzothiazol-2-yl)amino]pyridazin-3-yl}amino)-1,3-thiazole-4-carboxylic acid]",6.59,4.88,≤ 5.13
"Cc1c(Nc2nc(C(=O)O)c(-c3cnn(CC45CC6CC(CC(C6)C4)C5)c3C)s2)nnc(Nc2nc3ccccc3s2)c1C [Example 33, 5-{1-[(Adamantan-1-yl)methyl]-5-methyl-1H-pyrazol-4-yl}-2-({6-[(1,3-benzothiazol-2-yl)amino]-4,5-dimethylpyridazin-3-yl}amino)-1,3-thiazole-4-carboxylic acid]",7.19,5.20,5.36
"CC(C)c1cc(N(C)c2nc(C(=O)O)cs2)nnc1Nc1nc2ccccc2s1 [Example 34, 2-({6-[(1,3-Benzothiazol-2-yl)amino]-5-(propan-2-yl)pyridazin-3-yl}(methyl)amino)-1,3-thiazole-4-carboxylic acid]",8.05,5.41,5.27
"COCCCC1(Cn2ncc(-c3sc(Nc4nnc(Nc5nc6ccccc6s5)c(C)c4C)nc3C(=O)O)c2C)CCCCCCC1 [Example 35, 2-({6-[(1,3-Benzothiazol-2-yl)amino]-4,5-dimethylpyridazin-3-yl}amino)-5-(1-{[1-(3-methoxypropyl)cyclooctyl]methyl}-5-methyl-1H-pyrazol-4-yl)-1,3-thiazole-4-carboxylic acid]",7.23,5.43,5.63
"COCCCC1(Cn2ncc(-c3sc(Nc4nnc(Nc5nc6ccccc6s5)c(C)c4C)nc3C(=O)O)c2C)CCCCC1 [Example 36, 2-({6-[(1,3-benzothiazol-2-yl)amino]-4,5-dimethylpyridazin-3-yl}amino)-5-(1-{[1-(3-methoxypropyl)cyclohexyl]methyl}-5-methyl-1H-pyrazol-4-yl)-1,3-thiazole-4-carboxylic acid]",7.55,5.46,5.70
"CCN(c1cc(C)c(Nc2nc3ccccc3s2)nn1)c1nc(C(=O)O)cs1 [Example 37, 2-({6-[(1,3-Benzothiazol-2-yl)amino]-5-methylpyridazin-3-yl}(ethyl)amino)-1,3-thiazole-4-carboxylic acid]",7.82,5.13,4.96
"CN(c1ccc(Nc2nc3ccccc3s2)nn1)c1cccc(C(=O)O)n1 [Example 38, 6-({6-[(1,3-Benzothiazol-2-yl)amino]pyridazin-3-yl}(methyl)amino)pyridine-2-carboxylic acid]",3.60,< 4.82,< 4.82
"COCCN(c1cc(C)c(Nc2nc3ccccc3s2)nn1)c1nc(C(=O)O)cs1 [Example 39, 2-({6-[(1,3-Benzothiazol-2-yl)amino]-5-methylpyridazin-3-yl}(2-methoxyethyl)amino)-1,3-thiazole-4-carboxylic acid]",7.27,< 4.82,< 4.82
"Cc1cc(N(C)c2nc(C(=O)O)c(-c3cnn(CC45CC6CC(CC(C6)C4)C5)c3C)s2)nnc1Nc1nc2ccccc2s1 [Example 40, 5-{1-[(Adamantan-1-yl)methyl]-5-methyl-1H-pyrazol-4-yl}-2-({6-[(1,3-benzothiazol-2-yl)amino]-5-methylpyridazin-3-yl}(methyl)amino)-1,3-thiazole-4-carboxylic acid]",7.70,5.83,5.42
"Cc1cc(N(CCN2CCOCC2)c2nc(C(=O)O)cs2)nnc1Nc1nc2ccccc2s1 [Example 41, 2-({6-[(1,3-Benzothiazol-2-yl)amino]-5-methylpyridazin-3-yl}[2-(morpholin-4-yl)ethyl]amino)-1,3-thiazole-4-carboxylic acid]",7.43,< 4.89,≤ 5.01
"COCCCC1(Cn2ncc(-c3sc(N(C)c4cc(C)c(Nc5nc6ccccc6s5)nn4)nc3C(=O)O)c2C)CCCCC1 [Example 42, 2-({6-[(1,3-Benzothiazol-2-yl)amino]-5-methylpyridazin-3-yl}(methyl)amino)-5-(1-{[1-(3-methoxypropyl)cyclohexyl]methyl}-5-methyl-1H-pyrazol-4-yl)-1,3-thiazole-4-carboxylic acid]",8.33,5.99,5.69
"Cc1cc(N(CCCN2CCOCC2)c2nc(C(=O)O)cs2)nnc1Nc1nc2ccccc2s1 [Example 44, 2-({6-[(1,3-Benzothiazol-2-yl)amino]-5-methylpyridazin-3-yl}[3-(morpholin-4-yl)propyl]amino)-1,3-thiazole-4-carboxylic acid]",7.16,< 4.82,< 4.82
"CCCN(c1cc(C)c(Nc2nc3ccccc3s2)nn1)c1nc(C(=O)O)cs1 [Example 45, 2-({6-[(1,3-Benzothiazol-2-yl)amino]-5-methylpyridazin-3-yl}(propyl)amino)-1,3-thiazole-4-carboxylic acid]",7.85,4.93,≤ 4.93
"CCN(CC)CCCN(c1cc(C)c(Nc2nc3ccccc3s2)nn1)c1nc(C(=O)O)cs1 [Example 46, 2-({6-[(1,3-Benzothiazol-2-yl)amino]-5-methylpyridazin-3-yl}[3-(diethylamino)propyl]amino)-1,3-thiazole-4-carboxylic acid]",6.72,< 4.82,< 4.82
"COCCCN(c1cc(C)c(Nc2nc3ccccc3s2)nn1)c1nc(C(=O)O)cs1 [Example 47, 2-({6-[(1,3-Benzothiazol-2-yl)amino]-5-methylpyridazin-3-yl}(3-methoxypropyl)amino)-1,3-thiazole-4-carboxylic acid]",7.64,< 4.82,≤ 5.02
"Cc1cc(N(CCCO)c2nc(C(=O)O)cs2)nnc1Nc1nc2ccccc2s1 [Example 49, 2-({6-[(1,3-Benzothiazol-2-yl)amino]-5-methylpyridazin-3-yl}(3-hydroxypropyl)amino)-1,3-thiazole-4-carboxylic acid]",8.09,< 4.82,< 4.82
"COCCCN(c1cc(C)c(Nc2nc3ccccc3s2)nn1)c1nc(C(=O)O)c(-c2cnn(CC34CC5CC(CC(C5)C3)C4)c2C)s1 [Example 52, 5-{1-[(Adamantan-1-yl)methyl]-5-methyl-1H-pyrazol-4-yl}-2-({6-[(1,3-benzothiazol-2-yl)amino]-5-methylpyridazin-3-yl}(3-methoxypropyl)amino)-1,3-thiazole-4-carboxylic acid]",7.05,5.08,4.89
"Cc1c(-c2sc(N(C)c3cc(C4CC4)c(Nc4nc5ccccc5s4)nn3)nc2C(=O)O)cnn1CC12CC3CC(CC(C3)C1)C2 [Example 53, 5-{1-[(Adamantan-1-yl)methyl]-5-methyl-1H-pyrazol-4-yl}-2-({6-[(1,3-benzothiazol-2-yl)amino]-5-cyclopropylpyridazin-3-yl}(methyl)amino)-1,3-thiazole-4-carboxylic acid]",7.82,6.15,5.78
